Where two headings read alike, the source gives them in different places.
Columns and labels:
NAMPT = molecular target: T1, NAMPT (Homo sapiens, UniProt P43490); assay: NAMPT Activity Assay (Abcam #ab221819); type: biochemical; settings: purified NAMPT, two-step reaction, OD450 nm; percent inhibition vs no drug; compound concentration not stated
T1 construct: purchased Abcam ab221819

MV-4-11 cells = assay: Cell viability in MV-4-11 cells (CellTiter Glo2); type: cell-based; settings: Homo sapiens, MV4-11, 96 h, 8-point dose response, 4 days
Procedure: Approximately 10,000 MV-4-11 cells per well of a 96-well plate were treated with DMSO (no drug control) or each compound in Tables E1 and E2 in an 8-point dose response for 4 days, Cell viability was measured using CellTiter Glo2. The ICse of each compound was determined using CDD Vault.

[1] = CellTiter Glo2 (Table E2), read-out: MV-4-11 Cell Viability, MV-4-11 IC50
[2] = CellTiter Glo2 (Table E1), read-out: MV-4-11 IC50

T1 sequence (P43490 whole entry): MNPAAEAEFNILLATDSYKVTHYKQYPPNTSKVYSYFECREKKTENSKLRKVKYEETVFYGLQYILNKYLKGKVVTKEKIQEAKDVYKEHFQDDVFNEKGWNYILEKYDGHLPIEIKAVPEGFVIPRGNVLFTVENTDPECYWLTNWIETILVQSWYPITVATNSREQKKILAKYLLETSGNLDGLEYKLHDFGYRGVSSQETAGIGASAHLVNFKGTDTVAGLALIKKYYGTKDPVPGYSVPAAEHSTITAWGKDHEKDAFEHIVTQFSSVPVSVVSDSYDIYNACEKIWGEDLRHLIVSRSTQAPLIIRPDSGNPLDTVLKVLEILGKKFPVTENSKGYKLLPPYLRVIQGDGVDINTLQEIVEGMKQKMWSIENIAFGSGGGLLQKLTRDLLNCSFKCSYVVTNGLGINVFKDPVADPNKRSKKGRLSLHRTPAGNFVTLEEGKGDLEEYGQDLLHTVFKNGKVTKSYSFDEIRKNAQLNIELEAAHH

Compound | NAMPT Inhibition Code (NAMPT) | IC50 (MV-4-11 cells; [1]) [nM] | IC50 (MV-4-11 cells; [2]) [nM]
CC(=O)N(CCC#N)c1ccc(-c2ccc(C(=O)NCc3cccnc3)cn2)cc1 [Compound I-484, 6-[4-[acetyl(2-cyanoethyl)amino]phenyl]-N-(3-pyridylmethyl)pyridine-3-carboxamide] | A (A = <33% inhibition) | 2660 | 
CCC(=O)N(CCNC(=O)OC(C)(C)C)c1ccc(-c2ccc(C(=O)NCc3cccnc3)cc2)cc1 [Compound I-417, tert-butyl N-[2-[N-propanoyl-4-[4-(3-pyridylmethylcarbamoyl)phenyl]anilino]ethyl]carbamate] | A (A = <33% inhibition) |  | 105
CCC(=O)N(C)c1ccc(-c2ccc(C(=O)NCc3ccc(OC)nc3)cn2)cc1 [Compound I-397, N-[(6-methoxy-3-pyridyl)methyl]-6-[4-[methyl(propanoyl)amino]phenyl]pyridine-3-carboxamide] | B (B = ≥33 to <66% inhibition) |  | 13800
CC(=O)N(CC1CCC1)c1ccc(-c2ccc(C(=O)NCc3cccnc3)cn2)cc1 [Compound I-453, 6-[4-[acetyl(cyclobutylmethyl)amino]phenyl]-N-(3-pyridylmethyl)pyridine-3-carboxamide] | C (C = ≥66% inhibition) | 38 | 
COC(=O)c1cc(-c2ccc(C(=O)NCc3cccnc3)cn2)ccc1N(C)C(C)=O [Compound I-662, Methyl 2-[acetyl(methyl)amino]-5-[5-(3-pyridylmethylcarbamoyl)-2-pyridyl]benzoate] | C (C = ≥66% inhibition) | 36 | 
CCCN(C(C)=O)c1ccc(-c2ccc(C(=O)NCc3cccnc3C)cn2)cc1Cl [Compound I-458, 6-[4-[acetyl(propyl)amino]-3-chloro-phenyl]-N-[(2-methyl-3-pyridyl)methyl]pyridine-3-carboxamide] | A (A = <33% inhibition) | 1710 | 
CC(=O)N(CCC(F)(F)F)c1ccc(-c2ccc(C(=O)NCc3cccnc3)cn2)cc1C [Compound I-601, 6-[4-[Acetyl(3,3,3-trifluoropropyl)amino]-3-methyl-phenyl]-N-(3-pyridylmethyl)pyridine-3-carboxamide] | B (B = ≥33 to <66% inhibition) | 62.7 | 
Cc1cc(-c2ccc(C(=O)NCc3cccnc3)cn2)ccc1N(C)C(=O)CCN [Compound I-593, 6-[4-[3-aminopropanoyl(methyl)amino]-3-methyl-phenyl]-N-(3-pyridylmethyl)pyridine-3-carboxamide] | A (A = <33% inhibition) | 1470 | 
CCC(=O)N(C)c1ccc(-c2ccc(C(=O)NCc3ccc(Cl)nc3)cn2)cc1 [Compound I-396, N-[(6-chloro-3-pyridyl)methyl]-6-[4-[methyl(propanoyl)amino]phenyl]pyridine-3-carboxamide] | C (C = ≥66% inhibition) |  | 6560
CC(=O)N(c1ccc(-c2ccc(C(=O)NCc3cccnc3C)cn2)cc1C)C(C)C [Compound I-512, 6-[4-[Acetyl(isopropyl)amino]-3-methyl-phenyl]-N-[(2-methyl-3-pyridyl)methyl]pyridine-3-carboxamide] | A (A = <33% inhibition) | 4380 | 
CC(=O)N(CC1CC(F)(F)C1)c1ccc(-c2ccc(C(=O)NCc3cccnc3)cn2)cc1 [Compound I-412, 6-[4-[acetyl-[(3,3-difluorocyclobutyl)methyl]amino]phenyl]-N-(3-pyridylmethyl)pyridine-3-carboxamide] | B (B = ≥33 to <66% inhibition) |  | 82.5
CC(=O)N(CC(C)C)c1ccc(-c2ccc(C(=O)NCc3cccnc3)cn2)cc1Cl [Compound I-599, 6-[4-[Acetyl(isobutyl)amino]-3-chloro-phenyl]-N-(3-pyridylmethyl)pyridine-3-carboxamide] | C (C = ≥66% inhibition) | 3.28 | 

From patent publication US12612368B2 (Remedy Plan, Inc., priority 2019, dated 2026)
